# Patent US7973021B2, “Immunomodulating agent in gut” (Kabushiki Kaisha Hayashibara Seibutsu Kagaku Kenkyujo, priority 2005, dated 2011)
# Columns and labels:
# female BALB/c mice [1] = assay: IgA content in feces of mice fed saccharide-supplemented purified diet (ELISA); assay type: in vivo; details: for IgA content in feces: average of five mice
# Method: To investigate immunomodulating effects of various saccharides, IgA contents in feces of mice administered saccharides were measured. After six-week-old female BALB/c mice were preliminarily grown for a week with AIN-93G, which is a standard growth purified diet for nutritional study using mice or rats introduced by American Institute of Nutrition in 1993, they were separated in groups of five mice each, and unlimitedly administered the test diets, which is made by supplementing 5 w/w % of the cyclic tetrasaccharide (produced in Example 2), 5 w/w % of nigerooligosaccharide (12.5 w/w % of “NISSHOKU TASTE OLIGO SYRUP”, containing 40% or more of nigerooligosaccharide on a dry solid basis, commercialized by Nihon Shokuhin Kako Co., Ltd.), or 5 w/w % of isomaltooligosaccharide (“ISOMALT 90” commercialized by Hayashibara Shoji, Inc.) to the same formula diet described above except the amount of corn starch was reduced by the relevant weight of the added test saccharide. As control, one group was administered with the standard growth purified diet (AIN-93G) without the test saccharides described above. After 1, 2, 3 and 4 weeks from the initial administration of the test or control diets, fresh feces were taken from each mouse and IgA content was measured by the ELISA method using anti-IgA antibody (MOUSE IgA ELISA QUANTITATION KIT produced by Bethyl Laboratories, Inc). The values expressed in percent in Table 1 mean the relative amounts with respect to control in each week.
# female BALB/c mice [2] = assay: Analysis of cecal contents (pH, weight, IgA, IgG) of mice fed saccharide diets for 4 weeks; assay type: in vivo
# Method: To investigate the immunomodulating effect of the various saccharides, IgA content and IgG content in the cecal contents of the mice administered saccharides were measured. After the mice fed on the purified diet containing the test saccharide or the control purified diet (AIN-93G) for 4 weeks in Experiment 1 were killed, their cecums were surgically removed. After the pH and weight of the cecum contents were measured, IgA content and IgG content in the cecal contents were measured. IgA content was measured by ELISA method using anti-IgA antibodies and IgG content was measured by ELISA method using anti-IgG antibodies (MOUSE IgG ELISA QUANTITATION KIT produced by Bethyl Laboratories, Inc) and the amounts of the antibodies per gram of the cecal contents were obtained.
# Peyer's patch cells [3] = assay: IgA, IL-6 and TGF-β produced by Peyer's patch cells taken from mice administered the saccharides (ConA culture, ELISA); assay type: in vivo
# Method: To investigate the immnomodulating effect of the various saccharides, the contents of IgA, IL-6 and TGF-βproduced by the Peyer's patch cells taken from the mice administered the saccharides. After the Peyer's patches taken from the mice administered with the purified diet containing the test saccharides or the control purified diet in Experiment 2 were cut by scissors, they were treated in 0.2 w/w % collagenase solution at 37° C. for 30 minutes. They were filtered through a cell strainer and the filtrate containing the cells were centrifuged to give the cell precipitates. They were suspended in 45 w/w % PARCOR (commercialized by Amersham, PLC), the cell suspensions were layered on 75 w/w % PARCOR and centrifuged for 10 minutes at 1,000 g. Cells floating at the interface between 45 w/w % PARCOR and 75 w/w % PARCOR were collected and suspended in RPM1164 medium containing 10% FCS and 10 mM HEPES to give the cell suspensions at a concentration of 1×10^6 cells/ml. They were seeded in 24-well microplates by 1 ml/well, added with 2 μg/m1 of concanavalin A, and cultured at 37° C. for 48 hours in atmosphere of 5% carbon dioxide. The culture supernatant was collected from each well and their IgA contents, TGF-βcontents or IL-6 contents were measured by ELISA method using anti-mouse-IgA antibody, anti-mouse-IL-6 antibody and anti-mouse-TGF-μ1 antibody, then the averages were calculated from the data of five mice. The values in Table 3 means relative amounts (%) to IgA, IL-6 or TGF-β amount produced in Peyer's patch cells taken from the control mice.
# female BALB/c mice [4] = assay: Amounts of organic acids in cecal contents of mice ingesting the saccharides (ion chromatography); assay type: in vivo
# Method: To investigate the effects of the various saccharides on the enteric environment of mice, the contents of organic acids in the cecal contents were measured. After the cecal contents taken from the mice administered the purified diet containing the test saccharides or the control purified diet in Experiment 2 were suspended in an adequate amount of purified water, their supernatants collected by centrifugation were filtered with membrane (pore size of 0.45 μm). The filtrates were subjected to an ion chromatoanalyzer IC500P (produced by Yokogawa Electric Corporation) loaded with precolumn PCS5-052 and separation column SCS5-252, and eluted with 2 mM sulfuric acid (1.0 ml/min) to analyze the amounts of organic acids. The values expressed in percent in Table 4 mean the relative amounts of each organic acid in the cecal contents to those of the control mice.
# Peyer's patch cells [5] = assay: Effects of saccharides on IFN-γ and IL-4 production of Peyer's patch cells in vitro (ELISA); assay type: cell-based, mice; details: saccharide 0.1 mg/ml; for Relative amount of IFN-γ / Relative amount of IL-4: 72 hours, relative to control; for IFN-γ production by stimulation of concanavalin A (in words): in vitro
# Method: To investigate direct effects of various saccharides on Peyer's patch cells, the amounts of IFN-γ and IL-4 produced in Peyer's patch cells taken from mice by adding various kinds of saccharide in an in vitro experiment. After six-week-old female BALB/c mice were preliminarily grown for a week with a standard growth purified diet (AIN-93G), their Peyer's patch cells were collected according to the method of Experiment 3. The cell suspension at a concentration of 1×10^6 cells/ml was prepared with RPMI1640 medium containing 10% FCS and 10 mM HEPES and seeded in 24-well microplates by 1 ml/well. After the test saccharides (the cyclic tetrasaccharide, nigerose or isomaltose) were added in an amount of 0.1 mg/ml and lipopolysaccharide (LPS) or concanavalin A (ConA) of 2 μg/ml, they were cultured at 37° C. for 72 hours in an atmosphere of 5% carbon dioxide. The amounts of IFN-γin the supernatants were measured by the ELISA method using anti-mouse- IFN-γ antibodies (MURINE IFN-γELISA DEVELOPMENT KIT, produced by PeproTech, Inc.), and the amounts of IL-4 were measured by the ELISA method using anti-mouse-IL-4 antibodies (Mouse IL-4 ELISA DEVELOPMENT KIT, produced by Genzyme-Techne). As a control, the amounts of IFN-γ and IL-4 produced in Peyer's patch cells cultured with the medium without adding the test saccharides by the same way described above. The values in Table 5 were shown as the relative amounts (%) to control.
# [6] = after 4 weeks on 5 w/w % saccharide diet
# [7] = after 4 weeks on 5 w/w % saccharide diet, per gram of cecal contents
# [8] = cells from mice administered the saccharide
# [9] = relative to Peyer's patch cells of control mice, 2 μg/ml concanavalin A, 48 hours, average of five mice
# [10] = cecal contents, 4 weeks on 5 w/w % saccharide diet
smiles,measurement,setting,value
"OC[C@H]1O[C@@H]2OC[C@H]3O[C@H](O[C@@H]4[C@@H](O)[C@@H](OC[C@H]5O[C@H](O[C@H]([C@H]2O)[C@@H]1O)[C@H](O)[C@@H](O)[C@@H]5O)O[C@H](CO)[C@H]4O)[C@H](O)[C@@H](O)[C@@H]3O [Cyclic tetrasaccharide, cyclo{>6)-α-D-glucopyranosyl-(1>3)-α-D -glucopyranosyl-(1>6)-α-D-glucopyranosyl-(1>3)-α-D -glucopyranosyl-(1>}]",IgA content in feces,"female BALB/c mice [1]; First week (age in 8 weeks), 5 w/w % saccharide in AIN-93G diet",5.61 mg/g
same,"IgA content in feces, relative amount with respect to control","female BALB/c mice [1]; First week, 5 w/w % saccharide in diet",106%
same,IgA content in feces,"female BALB/c mice [1]; Fourth week (age in 11 weeks), 5 w/w % saccharide in diet",7.09 mg/g
same,"IgA content in feces, relative amount with respect to control","female BALB/c mice [1]; Fourth week, 5 w/w % saccharide in diet",328%
same,IgA content in feces,"female BALB/c mice [1]; Second week (age in 9 weeks), 5 w/w % saccharide in diet",8.47 mg/g
same,"IgA content in feces, relative amount with respect to control","female BALB/c mice [1]; Second week, 5 w/w % saccharide in diet",214%
same,IgA content in feces,"female BALB/c mice [1]; Third week (age in 10 weeks), 5 w/w % saccharide in diet",7.57 mg/g
same,"IgA content in feces, relative amount with respect to control","female BALB/c mice [1]; Third week, 5 w/w % saccharide in diet",346%
same,IgA contents in feces of the mice (in words),female BALB/c mice [1]; added in the purified diet,increased
same,IgA contents in cecal contents (in words),female BALB/c mice [2]; 4 weeks on saccharide diet,highest increase
same,Weight of cecal contents,female BALB/c mice [2]; [6],169 mg
same,pH of cecal contents,female BALB/c mice [2]; [6],7.16
same,IgA content in cecal contents,female BALB/c mice [2]; [7],4.4 mg/g
same,IgG content in cecal contents,female BALB/c mice [2]; [7],85 mg/g
same,IgA secretion in Peyer's patch cells (in words),Peyer's patch cells [3]; [8],increased
same,production of IL-6 in Peyer's patch cells (in words),Peyer's patch cells [3]; [8],increased
same,production of TGF-β in Peyer's patch cells (in words),Peyer's patch cells [3]; [8],increased
same,Relative IL-6 content,Peyer's patch cells [3]; [9],326%
same,Relative IgA content,Peyer's patch cells [3]; [9],209%
same,Relative TGF-β content,Peyer's patch cells [3]; [9],142%
same,"Acetic acid, relative amount to control mice",female BALB/c mice [4]; cecal contents,(94%)
same,"Formic acid, relative amount to control mice",female BALB/c mice [4]; cecal contents,(258%)
same,"Isobutyric acid, relative amount to control mice",female BALB/c mice [4]; cecal contents,(70%)
same,"Isovaleric acid, relative amount to control mice",female BALB/c mice [4]; cecal contents,(73%)
same,"Lactic acid, relative amount to control mice",female BALB/c mice [4]; cecal contents,(1000%)
same,"Malic acid, relative amount to control mice",female BALB/c mice [4]; cecal contents,(179%)
same,"Propionic acid, relative amount to control mice",female BALB/c mice [4]; cecal contents,(100%)
same,"Succinic acid, relative amount to control mice",female BALB/c mice [4]; cecal contents,(267%)
same,"Total organic acids, relative amount to control mice",female BALB/c mice [4]; cecal contents,(109%)
same,"n-Butyric acid, relative amount to control mice",female BALB/c mice [4]; cecal contents,(206%)
same,"n-Valeric acid, relative amount to control mice",female BALB/c mice [4]; cecal contents,(73%)
same,Amount of organic acid: Acetic acid,female BALB/c mice [4]; [10],63 µmol/g
same,Amount of organic acid: Formic acid,female BALB/c mice [4]; [10],0.82 µmol/g
same,Amount of organic acid: Isobutyric acid,female BALB/c mice [4]; [10],1.9 µmol/g
same,Amount of organic acid: Isovaleric acid,female BALB/c mice [4]; [10],2.4 µmol/g
same,Amount of organic acid: Lactic acid,female BALB/c mice [4]; [10],4.2 µmol/g
same,Amount of organic acid: Malic acid,female BALB/c mice [4]; [10],1.5 µmol/g
same,Amount of organic acid: Propionic acid,female BALB/c mice [4]; [10],12 µmol/g
same,Amount of organic acid: Succinic acid,female BALB/c mice [4]; [10],5.6 µmol/g
same,Amount of organic acid: Total organic acids,female BALB/c mice [4]; [10],106 µmol/g
same,Amount of organic acid: n-Butyric acid,female BALB/c mice [4]; [10],14 µmol/g
same,Amount of organic acid: n-Valeric acid,female BALB/c mice [4]; [10],0.87 µmol/g
same,lactic acid content in cecal contents (in words),"female BALB/c mice [4]; mouse, in vivo",increased
same,Relative amount of IFN-γ,Peyer's patch cells [5]; ConA 2 μg/ml,269%
same,Relative amount of IL-4,Peyer's patch cells [5]; ConA 2 μg/ml,96%
same,Relative amount of IFN-γ,Peyer's patch cells [5]; LPS 2 μg/ml,103%
same,Relative amount of IL-4,Peyer's patch cells [5]; LPS 2 μg/ml,101%
same,IFN-γ production by stimulation of concanavalin A (in words),Peyer's patch cells [5],accelerated
"OC[C@H]1O[C@H](O[C@H]2[C@H](O)[C@@H](CO)OC(O)[C@@H]2O)[C@H](O)[C@@H](O)[C@@H]1O (stereo partly shown) [Nigerose, nigerose]",Relative amount of IFN-γ,Peyer's patch cells [5]; ConA 2 μg/ml,63%
same,Relative amount of IL-4,Peyer's patch cells [5]; ConA 2 μg/ml,100%
same,Relative amount of IFN-γ,Peyer's patch cells [5]; LPS 2 μg/ml,104%
same,Relative amount of IL-4,Peyer's patch cells [5]; LPS 2 μg/ml,99%
same,IFN-γ production by stimulation of concanavalin A (in words),Peyer's patch cells [5],suppressed
"OC[C@H]1O[C@H](OC[C@H]2OC(O)[C@H](O)[C@@H](O)[C@@H]2O)[C@H](O)[C@@H](O)[C@@H]1O (stereo partly shown) [Isomaltose, isomaltose]",Relative amount of IFN-γ,Peyer's patch cells [5]; ConA 2 μg/ml,53%
same,Relative amount of IL-4,Peyer's patch cells [5]; ConA 2 μg/ml,100%
same,Relative amount of IFN-γ,Peyer's patch cells [5]; LPS 2 μg/ml,100%
same,Relative amount of IL-4,Peyer's patch cells [5]; LPS 2 μg/ml,97%
same,IFN-γ production by stimulation of concanavalin A (in words),Peyer's patch cells [5],suppressed
